Reference: patent publication US20150322083A1, “(THIENO[2,3-b][1,5]BENZOXAZEPIN-4-YL)PIPERAZIN-1-YL COMPOUNDS AS SELECTIVE 5-HT2A INVERSE AGONISTS” (Eli Lilly and Company, priority 2014, published 2015)
pKi: −log10 of the molar value.

Legend:
5-HT6 = 5-HT6 (Homo sapiens, UniProt P50406); test: 5-HT6 binding
Description: (§1) Curves are evaluated using a 4-parameter logistic nonlinear equation to obtain the concentration of competitor causing 50% inhibition of radioligand binding (IC50). Equilibrium dissociation constants (Ki) are calculated according to the equation Ki=IC50/(1+L/Kd), where L equals the concentration of radioligand used in the experiment and Kd equals the equilibrium dissociation constant of the radioligand for the receptor, determined from standard saturation analysis or homologous competition experiments. Reported values for Ki, where n values are indicated, are shown as geometric mean±the standard error of the mean (SEM), with the number of replicate determinations indicated by n. Geometric means are calculated by the equation GeoMean=10̂(Average(log Ki 1+log Ki 2+ . . . log Ki n)/[…]).
(§2) Further, the compounds of the invention may be tested in binding assays and functional activity assays by well known methods for other physiologically important receptors such as, but not limited to, the hERG channel, other serotonin receptors (specifically 5-HT1B receptors, lack of agonist activity at 5-HT2B receptors, 5-HT2C, 5-HT5, 5-HT6, and 5-HT7 receptors), dopaminergic receptors (specifically D1, D2, and D3), H1 receptors, GABAA receptors, adrenergic receptors and monoamine transporters.

[1] = tested on: MK-801 induced locomotor hyperactivity; test: MK-801 induced locomotor hyperactivity in mice; assay type: in vivo; settings: for Distance traveled during habituation with vehicle or compound, Mean: 1 hr. habituation before MK-801; for Distance traveled after administration of vehicle or 0.1 mg/Kg MK-801, Mean: 2 hrs after MK-801 0.1 mg/kg SC
From the text: MK-801 induced locomotor hyperactivity in mice: The rodent MK-801 induced locomotor hyperactivity assay has been used as a predictor of anti-psychotic therapeutic potential (Corbett, R., Camacho, F., Woods, A. T., Kerman, L. L., Fishkin, R. J., Brooks, K., and Dunn, R. W. Antipsychotic agents antagonize non-competitive N-methyl-D-aspartate antagonist-induced behaviors. Psychopharmacology (1995) vol. 120: 67-74). Compounds of the invention may be evaluated for their ability to reduce locomotor hyperactivity elicited by the NMDA receptor antagonist MK-801. Studies are conducted in the dark. Locomotor activity is measured in clear Perspex™ boxes (40×40×30 cm) based on infrared fields (100×100 cm). Sixteen boxes are used, four on each field, each monitored using overhead infrared cameras (Sanyo VCV-3412P, TrackSys Ltd, UK). The cameras feed into a Quad Videoswitch (VQ403-C), TrackSys Ltd, UK), which in turn feeds a PC running the image analysis application Ethovision v8 (Noidus, NL).
All treatment tzroups have initial sample sizes of n=8. Mice are assigned to groups using a pseudorandomised block method where treatments are balanced across the time of day of testing and the test room used. On the test day, animals are transported to the testing room ante-chamber in their home cages and dosed with the test compound (0.3-3 mg/kg po) or vehicle before being placed individually into the test boxes for 1 hr., during which time locomotor activity is measured. Following this habituation period, animals are dosed with MK-801 (0.1 mg/kg SC) or vehicle as appropriate and then replaced into the test boxes where locomotor activity is measured for a further 2 hrs. The measurement of interest for LMA studies is the distance moved (cm). Unless stated otherwise, points on all graphs are plotted as the mean±standard errors.
Data are imported into STATISTICA (v9) for statistical analyses. A general linear model approach is used for all multivariate ANOVAs calculated for the data. Following ANOVA, planned comparisons are used to investigate significant differences from the control animals. Statistical significances are denoted by the following symbols: *p<0.05, **p<0.01. Mean values calculated in Statistica are imported into SigmaPlot (v11) to graph the data.

5-HT1B receptors = 5-HT1B receptors (Homo sapiens, UniProt P28222); test: 5-HT1B binding
Sequence of 5-HT1B receptors (P28222 whole entry): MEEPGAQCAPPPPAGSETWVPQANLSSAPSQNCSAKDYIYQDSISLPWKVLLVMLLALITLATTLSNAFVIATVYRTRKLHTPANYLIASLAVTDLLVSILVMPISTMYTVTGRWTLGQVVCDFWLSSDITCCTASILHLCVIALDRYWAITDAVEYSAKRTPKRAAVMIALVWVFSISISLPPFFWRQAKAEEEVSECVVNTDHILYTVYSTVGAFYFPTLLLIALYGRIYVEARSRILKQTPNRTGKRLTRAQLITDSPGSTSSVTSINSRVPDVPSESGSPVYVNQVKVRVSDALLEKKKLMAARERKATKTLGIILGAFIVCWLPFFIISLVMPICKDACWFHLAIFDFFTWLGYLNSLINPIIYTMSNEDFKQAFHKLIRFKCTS
Description: as §1, §2

[2] = target: T1, recombinant 5-HT2C receptors (human) (Homo sapiens, UniProt P28335); test: 5-HT2C competition binding assay ([125I]-(±)DOI, SPA)
T1 construct: expressed in transfected cells
T1 sequence (P28335 33-458): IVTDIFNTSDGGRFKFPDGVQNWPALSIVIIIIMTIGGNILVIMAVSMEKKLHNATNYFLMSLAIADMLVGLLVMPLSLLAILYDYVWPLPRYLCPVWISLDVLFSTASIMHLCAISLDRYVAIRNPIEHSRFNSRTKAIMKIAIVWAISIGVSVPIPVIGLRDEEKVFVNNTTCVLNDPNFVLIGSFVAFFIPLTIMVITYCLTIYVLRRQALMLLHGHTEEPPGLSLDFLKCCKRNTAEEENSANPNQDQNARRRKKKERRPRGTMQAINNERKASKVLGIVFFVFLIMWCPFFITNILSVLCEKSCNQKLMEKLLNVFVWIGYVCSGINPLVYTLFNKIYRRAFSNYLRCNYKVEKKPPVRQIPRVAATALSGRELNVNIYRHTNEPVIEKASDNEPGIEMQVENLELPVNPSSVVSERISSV
Description: [^125I]-(±)DOI binding experiments are carried out in SPA 96-well format. Membranes used in this assay are prepared from AV-12 cells stably expressing recombinant 5-HT2C receptors (human). The incubation is initiated by the addition of a mixture of WGA PVT SPA beads (0.5 mg/well, Perkin Elmer (MA, USA), RPNQ0001) and 2.5 μg membranes to assay buffer (50 mM Tris-HCl, 10 mM MgCl2, 0.5 mM EDTA, 10 μM pargyline, 0.1% ascorbic acid, pH7.4) containing 0.2 nM [[^125I]-(±)DOI and varying concentrations of the test compound (10 point concentration response curves). Non-specific binding is determined in the presence of 20 μM 1-(1-naphthyl)piperazine. Samples are incubated for 4 hr. at room temperature (22° C.) and then read in a microplate scintillation counter.
Curves are evaluated using a 4-parameter logistic nonlinear equation to obtain the concentration of competitor causing 50% inhibition of radioligand binding (IC50). Equilibrium dissociation constants (Ki) are calculated according to the equation Ki=IC50/(1+L/Kd), where L equals the concentration of radioligand used in the experiment and Kd equals the equilibrium dissociation constant of the radioligand for the receptor, determined from standard saturation analysis or homologous competition experiments. […]

Sequence of 5-HT6 (P50406 whole entry, species assumed): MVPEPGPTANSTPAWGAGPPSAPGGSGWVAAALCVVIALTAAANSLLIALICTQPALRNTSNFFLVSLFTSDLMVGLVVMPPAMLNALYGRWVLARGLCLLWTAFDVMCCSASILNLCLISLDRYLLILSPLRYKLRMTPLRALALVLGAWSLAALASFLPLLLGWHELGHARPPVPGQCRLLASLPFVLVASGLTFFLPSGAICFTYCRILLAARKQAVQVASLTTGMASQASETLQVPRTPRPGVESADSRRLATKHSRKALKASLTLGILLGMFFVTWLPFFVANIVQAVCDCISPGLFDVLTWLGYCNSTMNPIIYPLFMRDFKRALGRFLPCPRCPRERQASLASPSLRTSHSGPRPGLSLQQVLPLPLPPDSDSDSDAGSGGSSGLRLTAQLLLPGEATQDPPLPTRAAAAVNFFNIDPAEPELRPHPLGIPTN

Cc1ccc2c(c1)Oc1sc(SC(C)C)cc1C(N1CCN(CC(C)(C)C(=O)O)CC1)=N2 [Example 1, 3-[4-(2-isopropylsulfanyl-8-methyl-thieno[2,3-b][1,5]benzoxazepin-4-yl)piperazin-1-yl]-2,2-dimethyl-propanoic acid]
pKi (5-HT6): 5.95
Distance traveled during habituation with vehicle or compound, Mean ([1]; 0.3 mg/Kg po): 9336.73 cm
Distance traveled after administration of vehicle or 0.1 mg/Kg MK-801, Mean ([1]; 0.3 mg/Kg po): 8492.08 cm
Distance traveled during habituation with vehicle or compound, Mean ([1]; 1.0 mg/Kg po): 8939.48 cm
Distance traveled after administration of vehicle or 0.1 mg/Kg MK-801, Mean ([1]; 1.0 mg/Kg po): 7258.87 cm
Distance traveled during habituation with vehicle or compound, Mean ([1]; 3.0 mg/Kg po): 7682.77 cm
Distance traveled after administration of vehicle or 0.1 mg/Kg MK-801, Mean ([1]; 3.0 mg/Kg po): 7085.68 cm
effect on MK-801 induced locomotor hyperactivity (in words) ([1]; 0.3-3 mg/kg po): significantly block
pKi (5-HT1B receptors): < 5.02
pKi [2]: 6.44
